In US10251854B2, “S-(carboxymethyl)-cysteine pharmaceutical compound and preparation method and use thereof” (Guangzhou Baiyunshan Pharmaceutical Holdings Co., Ltd. …, priority 2013, dated 2019):

Key:
Type in all cases: in vivo
Settings in all cases: x ± SD
[1] = test system: rat COPD model; test: Rat COPD model: inflammation indexes (TNF-α, IL-8, IL-6)
Method: (§1) 1.1 Preparation of Rat COPD Models
(§2) A method of establishing a rat COPD model by fumigation plus endotoxin lipopolysaccharide (LPS) endotracheal drop, which is commonly used at home and abroad at present was adopted. The period is 3 months (90 days). Specific method: on the 1st, the 15th, the 29th, the 43rd, the 57th, the 71st and the 85th days of the test, the rats were anesthetized with ethylether, the roots of tongues of the rats were pulled out, and LPS (200 ug/200 ul) was dripped through tracheas by bend gavage needle heads. The rats of the normal group were dripped with physiological saline of equal amount by the same method, and weren't fumigated. The rats of the other five groups were fumigated in a self-made fumigation bin. One side of the fumigation bin was externally connected with a negative pressure pump, and the top thereof was connected with a port for inserting cigarettes. With the negative press pump turned on, the cigarettes were lit, and the smoke of the cigarettes was absorbed into the fumigation bin. In order to prevent the animals from death caused by anoxia, 12 cigarettes were lit every time, and the lid of the fumigation bin was opened 20 min after fumigation for letting in fresh air. The operation was performed 1 h/3 times/day, with the LPS (200 ug/200 ul) being dripped through the tracheas by bend gavage needle heads.
(§3) 1.2 Pharmacological Intervention
(§4) The test was 90 days long. The pharmacological intervention was started from the 15th day, the rats of the positive group were perfused with carbocisteine, the rats of the low, medium and high test groups were perfused with different doses of test medicines, and the rats of the model group and the normal group were perfused with physiological saline of equal amount.
(§5) 1.3 Indexes Determination
(§6) Blood was taken from the orbit of each rat on the second day after the test was over, serum was separated, a complete stomach was cut and washed, lung tissue was preserved, the stomach and the right upper lung were left for pathobiology test, after the rest of the lung was subjected to lung tissue homogenate, the indexes of oxidization and antioxidation, the contents of lipid peroxide (LPO), malondialdehyde (MDA) and reduced glutathione (GSH), the activity of superoxide dismutase (SOD) and the concentration of inflammatory medium TNF-α, IL-8 and IL-6 were detected.

[2] = test system: rat COPD model; test: Rat COPD model: oxidization indexes (LPO, MDA)
Method: as §1, §2, §3, §4, §5, §6

[3] = test system: rat COPD model; test: Rat COPD model: antioxidation indexes (GSH, SOD)
Method: as §1, §2, §3, §4, §5, §6

Molecule: S-(carboxymethyl)-D-cysteine arginine salt monohydrate [D-arginine]
- IL-6 Lung tissue ([1]; high dose group): 13.69 ± 4.33 pg/mL
- IL-6 Serum ([1]; high dose group): 8.70 ± 2.35 pg/mL
- IL-8 Lung tissue ([1]; high dose group): 10.82 ± 2.59 pg/mL
- IL-8 Serum ([1]; high dose group): 7.74 ± 1.28 pg/mL
- TNF-α Lung tissue ([1]; high dose group): 24.40 ± 6.09 pg/mL
- TNF-α Serum ([1]; high dose group): 19.73 ± 6.08 g* pg/mL
- IL-6 Lung tissue ([1]; low dose group): 17.03 ± 7.27 pg/mL
- IL-6 Serum ([1]; low dose group): 11.07 ± 2.60 pg/mL
- IL-8 Lung tissue ([1]; low dose group): 12.69 ± 2.33 pg/mL
- IL-8 Serum ([1]; low dose group): 9.70 ± 1.35 pg/mL
- TNF-α Lung tissue ([1]; low dose group): 30.10 ± 9.44 pg/mL
- TNF-α Serum ([1]; low dose group): 23.12 ± 4.20 pg/mL
- IL-6 Lung tissue ([1]; medium dose group): 15.44 ± 5.64 pg/mL
- IL-6 Serum ([1]; medium dose group): 10.38 ± 3.54 pg/mL
- IL-8 Lung tissue ([1]; medium dose group): 12.01 ± 2.11 pg/mL
- IL-8 Serum ([1]; medium dose group): 8.26 ± 2.67 pg/mL
- TNF-α Lung tissue ([1]; medium dose group): 28.28 ± 13.57 pg/mL
- TNF-α Serum ([1]; medium dose group): 20.09 ± 5.10 pg/mL
- LPO Lung tissue ([2]; high dose group): 18.74 ± 3.47 nmol/mL
- LPO Serum ([2]; high dose group): 5.26 ± 0.88 nmol/mL
- MDA Lung tissue ([2]; high dose group): 4.58 ± 0.66 µmol/mL
- LPO Lung tissue ([2]; low dose group): 21.98 ± 2.16 nmol/mL
- LPO Serum ([2]; low dose group): 6.32 ± 1.34 nmol/mL
- MDA Lung tissue ([2]; low dose group): 5.21 ± 0.72 µmol/mL
- MDA Serum ([2]; low dose group): 8.66 ± 2.20 µmol/mL
- LPO Lung tissue ([2]; medium dose group): 20.62 ± 3.65 nmol/mL
- LPO Serum ([2]; medium dose group): 5.80 ± 1.07 nmol/mL
- MDA Lung tissue ([2]; medium dose group): 5.01 ± 0.41 µmol/mL
- GSH Lung tissue ([3]; high dose group): 114.54 ± 20.57 µmol/L
- GSH Serum ([3]; high dose group): 144.17 ± 27.40 µmol/L
- SOD Lung tissue ([3]; high dose group): 62.24 ± 16.47 U/mL
- SOD Serum ([3]; high dose group): 92.32 ± 20.65 U/mL
- GSH Lung tissue ([3]; low dose group): 92.23 ± 13.38 µmol/L
- SOD Lung tissue ([3]; low dose group): 46.86 ± 19.25 U/mL
- SOD Serum ([3]; low dose group): 74.53 ± 8.70 U/mL
- GSH Lung tissue ([3]; medium dose group): 107.77 ± 18.26 µmol/L
- SOD Lung tissue ([3]; medium dose group): 54.4 ± 12.18 U/mL
- SOD Serum ([3]; medium dose group): 83.74 ± 15.27 U/mL

Molecule: S-(carboxymethyl)-L-cysteine arginine salt monohydrate [L-arginine]
- IL-6 Lung tissue ([1]; high dose group): 12.77 ± 4.65 pg/mL
- IL-6 Serum ([1]; high dose group): 6.69 ± 1.92 pg/mL
- IL-8 Lung tissue ([1]; high dose group): 9.09 ± 1.89 pg/mL
- IL-8 Serum ([1]; high dose group): 6.24 ± 1.89 pg/mL
- TNF-α Lung tissue ([1]; high dose group): 20.36 ± 7.41 pg/mL
- TNF-α Serum ([1]; high dose group): 15.7 ± 5.16 pg/mL
- IL-6 Lung tissue ([1]; low dose group): 15.80 ± 6.02 pg/mL
- IL-6 Serum ([1]; low dose group): 9.17 ± 3.08 pg/mL
- IL-8 Lung tissue ([1]; low dose group): 11.88 ± 303 pg/mL
- IL-8 Serum ([1]; low dose group): 8.56 ± 2.33 pg/mL
- TNF-α Lung tissue ([1]; low dose group): 26.17 ± 8.33 pg/mL
- TNF-α Serum ([1]; low dose group): 20.22 ± 4.77 pg/mL
- IL-6 Lung tissue ([1]; medium dose group): 14.22 ± 5.13 pg/mL
- IL-6 Serum ([1]; medium dose group): 7.66 ± 2.83 pg/mL
- IL-8 Lung tissue ([1]; medium dose group): 9.98 ± 2.43 pg/mL
- IL-8 Serum ([1]; medium dose group): 7.39 ± 2.02 pg/mL
- TNF-α Lung tissue ([1]; medium dose group): 23.65 ± 11.21 pg/mL
- TNF-α Serum ([1]; medium dose group): 18.6 ± 3.89 pg/mL
- LPO Lung tissue ([2]; high dose group): 16.09 ± 3.22 nmol/mL
- LPO Serum ([2]; high dose group): 4.25 ± 0.99 nmol/mL
- MDA Lung tissue ([2]; high dose group): 3.96 ± 0.57 µmol/mL
- MDA Serum ([2]; high dose group): 6.79 ± 1.83 µmol/mL
- LPO Lung tissue ([2]; low dose group): 19.66 ± 3.90 nmol/mL
- LPO Serum ([2]; low dose group): 5.78 ± 1.65 nmol/mL
- MDA Lung tissue ([2]; low dose group): 4.77 ± 0.72 µmol/mL
- MDA Serum ([2]; low dose group): 8.02 ± 1.54 µmol/mL
- LPO Lung tissue ([2]; medium dose group): 17.78 ± 2.98 nmol/mL
- LPO Serum ([2]; medium dose group): 4.87 ± 1.90 nmol/mL
- MDA Lung tissue ([2]; medium dose group): 4.40 ± 0.60 µmol/mL
- MDA Serum ([2]; medium dose group): 7.34 ± 2.44 µmol/mL
- GSH Lung tissue ([3]; high dose group): 128.45 ± 24.09 µmol/L
- SOD Lung tissue ([3]; high dose group): 72.36 ± 14.55 U/mL
- SOD Serum ([3]; high dose group): 116.34 ± 27.86 U/mL
- GSH Lung tissue ([3]; low dose group): 102.45 ± 18.97 µmol/L
- GSH Serum ([3]; low dose group): 134.21 ± 26.45 µmol/L
- SOD Lung tissue ([3]; low dose group): 55.67 ± 13.29 U/mL
- SOD Serum ([3]; low dose group): 82.67 ± 19.45 U/mL
- GSH Lung tissue ([3]; medium dose group): 116.22 ± 22.73 µmol/L
- GSH Serum ([3]; medium dose group): 159.33 ± 30.20 µmol/L
- SOD Lung tissue ([3]; medium dose group): 65.44 ± 17.33 U/mL
- SOD Serum ([3]; medium dose group): 93.20 ± 20.77 U/mL

Molecule: N.N.N[C@H](CSCC(=O)O)C(=O)O.O [D-ammonium, S-(carboxymethyl)-D-cysteine ammonium salt monohydrate]
- IL-6 Lung tissue ([1]; high dose group): 13.83 ± 6.19 pg/mL
- IL-6 Serum ([1]; high dose group): 7.93 ± 3.10 pg/mL
- IL-8 Lung tissue ([1]; high dose group): 11.44 ± 1.64 pg/mL
- IL-8 Serum ([1]; high dose group): 7.38 ± 1.54 pg/mL
- TNF-α Lung tissue ([1]; high dose group): 21.33 ± 8.57 pg/mL
- TNF-α Serum ([1]; high dose group): 17.19 ± 4.05 pg/mL
- IL-6 Lung tissue ([1]; low dose group): 16.36 ± 4.78 pg/mL
- IL-6 Serum ([1]; low dose group): 10.76 ± 2.90 pg/mL
- IL-8 Lung tissue ([1]; low dose group): 13.09 ± 2.98 pg/mL
- IL-8 Serum ([1]; low dose group): 8.56 ± 2.79 pg/mL
- TNF-α Lung tissue ([1]; low dose group): 28.26 ± 12.06 pg/mL
- TNF-α Serum ([1]; low dose group): 21.12 ± 4.11 pg/mL
- IL-6 Lung tissue ([1]; medium dose group): 15.61 ± 4.40 pg/mL
- IL-6 Serum ([1]; medium dose group): 9.09 ± 3.23 pg/mL
- IL-8 Lung tissue ([1]; medium dose group): 11.90 ± 1.77 pg/mL
- IL-8 Serum ([1]; medium dose group): 8.05 ± 1.72 pg/mL
- TNF-α Lung tissue ([1]; medium dose group): 25.02 ± 10.89 pg/mL
- TNF-α Serum ([1]; medium dose group): 19.86 ± 3.58 pg/mL
- LPO Lung tissue ([2]; high dose group): 17.33 ± 4.07 nmol/mL
- LPO Serum ([2]; high dose group): 4.97 ± 1.74 nmol/mL
- MDA Lung tissue ([2]; high dose group): 4.35 ± 0.63 µmol/mL
- MDA Serum ([2]; high dose group): 7.05 ± 1.59 µmol/mL
- LPO Lung tissue ([2]; low dose group): 20.35 ± 3.70 nmol/mL
- LPO Serum ([2]; low dose group): 6.07 ± 1.55 nmol/mL
- MDA Lung tissue ([2]; low dose group): 5.12 ± 1.11 µmol/mL
- MDA Serum ([2]; low dose group): 8.28 ± 2.09 µmol/mL
- LPO Lung tissue ([2]; medium dose group): 18.38 ± 2.86 nmol/mL
- LPO Serum ([2]; medium dose group): 5.20 ± 0.96 nmol/mL
- MDA Lung tissue ([2]; medium dose group): 4.90 ± 0.43 µmol/mL
- MDA Serum ([2]; medium dose group): 7.75 ± 1.93 µmol/mL
- GSH Lung tissue ([3]; high dose group): 120.13 ± 25.76 µmol/L
- GSH Serum ([3]; high dose group): 158.76 ± 29.50 µmol/L
- SOD Lung tissue ([3]; high dose group): 70.51 ± 20.90 U/mL
- SOD Serum ([3]; high dose group): 98.28 ± 19.15 U/mL
- GSH Lung tissue ([3]; low dose group): 94.54 ± 17.50 µmol/L
- GSH Serum ([3]; low dose group): 120.16 ± 17.05 µmol/L
- SOD Lung tissue ([3]; low dose group): 52.17 ± 16.44 U/mL
- SOD Serum ([3]; low dose group): 72.30 ± 12.66 U/mL
- GSH Lung tissue ([3]; medium dose group): 109.68 ± 24.63 µmol/L
- GSH Serum ([3]; medium dose group): 131.33 ± 24.17 µmol/L
- SOD Lung tissue ([3]; medium dose group): 60.31 ± 14.12 U/mL
- SOD Serum ([3]; medium dose group): 88.85 ± 17.47 U/mL
